# Data reported in patent US7576222B2, “Alkynyl-containing tryptophan derivative inhibitors of TACE/matrix metalloproteinase” (priority 2004, dated 2009).
# Where two headings read alike, the source gives them in different places.
# What was measured:
# recombinant human MMP-2 = molecular target: T1, recombinant human MMP-2 (Homo sapiens, UniProt P08253); assay: In-vitro fluorescence (FRET) assay of MMP-2 activity; format: biochemical
# T1 construct: purchased Oncogene Research Products (Calbiochem) PF023
# T1 sequence (P08253 110-660): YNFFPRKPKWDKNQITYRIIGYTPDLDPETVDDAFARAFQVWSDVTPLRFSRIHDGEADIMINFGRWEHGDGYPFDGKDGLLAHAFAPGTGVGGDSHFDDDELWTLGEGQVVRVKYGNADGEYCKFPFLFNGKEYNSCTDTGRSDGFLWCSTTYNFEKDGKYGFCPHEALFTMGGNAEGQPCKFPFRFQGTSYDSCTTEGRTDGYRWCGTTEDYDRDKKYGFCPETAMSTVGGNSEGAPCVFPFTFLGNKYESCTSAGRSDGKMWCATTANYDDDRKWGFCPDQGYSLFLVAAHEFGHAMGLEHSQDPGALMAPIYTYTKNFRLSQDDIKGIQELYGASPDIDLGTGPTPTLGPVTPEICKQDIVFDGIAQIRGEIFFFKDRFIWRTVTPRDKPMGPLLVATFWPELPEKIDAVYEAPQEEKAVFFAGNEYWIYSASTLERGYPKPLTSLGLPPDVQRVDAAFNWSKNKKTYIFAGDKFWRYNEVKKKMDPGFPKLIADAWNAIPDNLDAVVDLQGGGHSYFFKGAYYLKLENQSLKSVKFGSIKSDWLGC
# From the text: (§1) A continuous assay was used in which the substrate is a synthetic peptide containing a fluorescent group (7-methoxycoumarin; Mca) that is quenched by energy transfer to a 2,4-dinitrophenyl group. See Knight, C. G. et al., FEBS Lett. (1992) 296: 263-266, incorporated herein by reference in its entirety. […] See Zhang, Y et al., Journal of Pharmacology and Experimental Therapeutics (JPET) (2004) 309:348-355, incorporated by reference in its entirety. The substrate used was Mca-PQGL-(3-[2,4-dinitrophenyl]-L-2,3-diaminopropionyl)-AR-OH (denoted as Wammp-5, custom synthesized by AnaSpec, Inc., San Jose, Calif.). The assay buffer consisted of 50 mM Hepes (pH 7.4), 100 mM NaCl, 5 mM CaCl2, and 0.005% Brij-35. Each well of black polystyrene 96-well plates contained a 200 μl reaction mixture consisting of assay buffer, purified MMP (final concentration of 25 ng/ml, prepared by diluting with the assay buffer), and varied concentrations of inhibitor (prepared by serially diluting a given inhibitor in DMSO in 96-well polypropylene plate). The plates were then incubated at 30° C. for 15 minutes. The enzymatic reactions were initiated by adding the substrate to a final concentration of 20 μM, and mixing 10 times with a pipette. The final DMSO concentration in the assay was 6.0%. The initial rate of the cleavage reaction was determined at 30° C. with a fluorescence plate reader (excitation filter of 330 nm and emission filter of 395 nm) immediately after substrate addition.
# (§2) Plots of the inhibitor concentration versus the percent inhibition were fit to the following equation: y=(a−d)/[1+(x/c)^b]+d, a general sigmoidal curve with Hill slope, a to d. x is the inhibitor concentration under test. “y” is the percent inhibition. “a” is the limiting response as x approaches zero. As x increases without bound, y tends toward its limit d. “c” is the inflection point (IC50) for the curve. That is, y is halfway between the lower and upper asymptotes when x=c. “b” is the slope factor or Hill coefficient.
# In-Vitro Fluorescence Assay of MMP-2 Activity
# [1] = molecular target: T2, recombinant human catalytic domain of MMP-1 (Homo sapiens, UniProt P03956); assay: In-vitro fluorescence (FRET) assay of MMP-1 activity; format: biochemical
# T2 construct: the recombinant human catalytic domain of MMP-1
# T2 sequence (P03956 100-269 limits assumed): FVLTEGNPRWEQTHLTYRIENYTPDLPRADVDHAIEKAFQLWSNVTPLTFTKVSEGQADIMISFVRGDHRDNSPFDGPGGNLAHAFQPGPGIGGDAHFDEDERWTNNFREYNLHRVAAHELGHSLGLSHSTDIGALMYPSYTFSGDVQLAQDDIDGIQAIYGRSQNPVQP
# From the text: In-Vitro Fluorescence Assay of MMP-1 Activity
# A continuous assay was used in which the substrate is a synthetic peptide containing a fluorescent group (7-methoxycoumarin; Mca) that is quenched by energy transfer to a 2,4-dinitrophenyl group. See Knight, C. G. et al., FEBS Lett. (1992) 296: 263-266, incorporated herein by reference in its entirety. When the peptide was cleaved by MMP, a large increase in fluorescence was observed. The source of enzyme in the assay was the recombinant human catalytic domain of MMP-1. See Zhang, Y et al., Journal of Pharmacology and Experimental Therapeutics (JPET) (2004) 309:348-355, incorporated by reference in its entirety. The substrate used was Mca-PQGL-(3-[2,4-dinitrophenyl]-L-2,3-diaminopropionyl)-AR-OH (denoted as Wammp-5, custom synthesized by AnaSpec, Inc., San Jose, Calif.). The assay buffer consisted of 50 mM Hepes (pH 7.4), 100 mM NaCl, 5 mM CaCl2, and 0.005% Brij-35. Each well of black polystyrene 96-well plates contained a 200 μl reaction mixture consisting of assay buffer, purified MMP (final concentration of 25 ng/ml, prepared by diluting with the assay buffer), and varied concentrations of inhibitor (prepared by serially diluting a given inhibitor in DMSO in 96-well polypropylene plate). The plates were then incubated at 30° C. for 15 minutes. The enzymatic reactions were initiated by adding the substrate to a final concentration of 20 μM, and mixing 10 times with a pipette. The final DMSO concentration in the assay was 6.0%. The initial rate of the cleavage reaction was determined at 30° C. with a fluorescence plate reader (excitation filter of 330 nm and emission filter of 395 nm) immediately after substrate addition.
# as §2
# [2] = molecular target: T3, catalytic domain of the recombinant TACE protein (Homo sapiens, UniProt P78536); assay: TACE FRET assay using TACE cat; format: biochemical
# T3 construct: The catalytic domain of the recombinant TACE protein was expressed and purified; made in house
# T3 sequence (P78536 223-474 limits assumed): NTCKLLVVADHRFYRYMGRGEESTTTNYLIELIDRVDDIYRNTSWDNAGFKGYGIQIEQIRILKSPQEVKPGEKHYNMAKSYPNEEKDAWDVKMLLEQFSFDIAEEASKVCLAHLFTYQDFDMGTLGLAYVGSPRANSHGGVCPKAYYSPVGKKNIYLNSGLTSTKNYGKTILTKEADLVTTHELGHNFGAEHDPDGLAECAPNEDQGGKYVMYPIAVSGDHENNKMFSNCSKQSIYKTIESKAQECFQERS
# In short: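 Initial fluorescence rate of Abz-[sequence]-Dpa pro-TNF-α peptide cleavage (substrate from 2 mM stock) read after adding substrate to enzyme (1 ug/ml) preincubated 10 min, room temperature, with inhibitor.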
# [3] = molecular target: T4, recombinant human catalytic domain of MMP-14 (Homo sapiens, UniProt P50281); assay: biochemical
# T4 construct: 177 amino acids corresponding to Tyr89-Gly265 of mature human enzyme; 20 kDa; purchased Chemicon International, Inc. CC1041
# From the text: as §1, §2
# In-Vitro Fluorescence Assay of MMP-14 Activity
# [4] = molecular target: T5, recombinant human catalytic domain of MMP-13 (Homo sapiens, UniProt P45452); assay: biochemical
# T5 construct: catalytic domain of MMP-13 (165 amino acids, residues 104-268, 19 kDa)
# From the text: as §1, §2
# In-Vitro Fluorescence Assay of MMP-13 Activity
# See Zhang, Y et al., Journal of Pharmacology and Experimental Therapeutics (JPET) (2004) 309:348-355, incorporated by reference in its entirety.
# [5] = test system: TNF-α Secretion in Raw Cells (Raw 264.7 cells); assay: Cell-based assay for inhibition of TNF-α secretion in Raw cells; conditions: read-out: TNF-α Secretion in Raw Cells IC50
# Procedure: Cell-Based Assay for Inhibition of TNF-A Secretion in Raw Cells
# (§3) The basic measurement of the assay is the percentage of inhibition of TNF-α secretion and the IC50 determination by a fitting with the model-39 of LSW data analysis tool.
# Raw 264.7 cells (ATCC Cat No. TIB-71) are maintained in DMEM medium containing 10% of serum, P/S, and Glutamine. […] For testing compounds, cells are cultured to confluence and are seeded the day before the experiment in 24 well culture dishes at 0.5 to 1 million/ml/well. On the next morning, the medium from the overnight culture is replaced with the fresh growth medium. The compounds are added at various concentrations at the 0.2% of final DMSO concentrations (10 μl of a 20% DMSO solution containing testing compounds is added to each well). The cells are pre-incubated with compounds for 1 hour. LPS (Sigma, L2262) is added to cells at a final concentration of 100 ng/ml (10 μl of a […] LPS solution freshly diluted from a 1 mg/ml LPS stock solution in PBS is added to each well) and cells are further incubated for 4 hours at 37° C. One milliliter (1 ml) of the supernatant was collected, cells are spun down and the supernatants are frozen at −80° C. until use.
# The TNF-α and other proinflammatory cytokines were detected by ELISA assay according to the manufacturer's instruction (Biosource International, Inc., Camarillo, Calif.) (For IL-1b measurement in Raw cells, one round of freeze and thaw of the cells was required.)
# [6] = test system: TNF-α Secretion in Human Whole Blood; assay: Human whole blood assay for LPS-induced TNF-α secretion; format: cell-based; conditions: fresh human blood, LPS 100 ng/ml, TNF-α by ELISA
# From the text: as §3
# [7] = TACE FRET assay, catalytic domain of recombinant TACE, read-out: TACE IC50
# [8] = Raw 264.7 cells, LPS 100 ng/ml, 4 hours, TNF-α by ELISA
Structure (SMILES),IC50 (recombinant human MMP-2),IC50 [3],"IC50 [2, 7]",IC50 [4],other results
"CC#CCOc1ccc(S(=O)(=O)NC(Cc2c[nH]c3ccc(OC)cc23)C(=O)O)cc1 (racemic) [Example 4, N-{[4-(but-2-ynyloxy)phenyl]sulfonyl}-5-methoxytryptophan]",7.84 µM,22.7 µM,,,inhibition at 1000 µM ([1]; read-out: MMP-1 Inhibition): 33%; IC50 [2]: 0.36 µM; inhibition at 15 µM ([4]; read-out: MMP-13 Inhibition): 50%
"CC#CCOc1ccc(S(=O)(=O)NC(Cc2cn(Cc3ccc(OC)cc3)c3ccc(C)cc23)C(=O)O)cc1 (stereo not shown) [Example 47, N-{[4-(but-2-ynyloxy)phenyl]sulfonyl}-1-(4-methoxybenzyl)-5-methyltryptophan]",0.66 µM,11.6 µM,,,inhibition at 67 µM ([1]; read-out: MMP-1 Inhibition): 30%
"CC#CCOc1ccc(S(=O)(=O)N[C@H](Cc2cn(Cc3ccccc3-c3ccccc3)c3ccccc23)C(=O)O)cc1 [Example 27, 1-(1,1′-biphenyl-2-ylmethyl)-N-{[4-(but-2-ynyloxy)phenyl]sulfonyl}-D-tryptophan]",,,0.97 µM,,"IC50 ([5]; Mus musculus, RAW264.7, 4 h): > 60 µM"
"CC#CCOc1ccc(S(=O)(=O)N[C@@H](Cc2c[nH]c3ccc(C)cc23)C(=O)O)cc1 [Example 218, N-{[4-(but-2-ynyloxy)phenyl]sulfonyl}-5-methyl-L(or D)-tryptophan]",0.27 µM,6.82 µM,0.14 µM,1.81 µM,"IC50 [6]: > 50 µM; MMP-1 Inhibition ([1]; Conc. 160 μM): 30%; IC50 [5, 8]: 7.11 µM"
"CC#CCOc1ccc(S(=O)(=O)N[C@H](Cc2cn(Cc3ccc(OC)cc3)c3ccccc23)C(=O)O)cc1 [Example 35, N-{[4-(but-2-ynyloxy)phenyl]sulfonyl}-1-(4-methoxybenzyl)-D-tryptophan]",,13 µM,0.08 µM,,"inhibition at 33 µM ([1]; read-out: MMP-1 Inhibition): 14%; IC50 ([5]; Mus musculus, RAW264.7, 4 h): > 60 µM"
"CC#CCOc1ccc(S(=O)(=O)N[C@@H](Cc2c[nH]c3ccc(OC)cc23)C(=O)O)cc1 [Example 221, N-{[4-(but-2-ynyloxy)phenyl]sulfonyl}-5-methoxy-D(or L)-tryptophan]",1.27 µM,20.7 µM,0.14 µM,13.6 µM,"MMP-1 Inhibition ([1]; Conc. 83 μM): 9%; IC50 [5, 8]: 57 µM"
"CC#CCOc1ccc(S(=O)(=O)N[C@@H](Cc2c[nH]c3ccc(OCc4ccccc4)cc23)C(=O)O)cc1 [Example 224, 5-(benzyloxy)-N-{[4-(but-2-ynyloxy)phenyl]sulfonyl}-L(or D)-tryptophan]",2.45 µM,19.7 µM,,4.44 µM,MMP-1 Inhibition ([1]; Conc. 83 μM): 19%
